Assays:
Test in all cases: relative viability (nuclei count vs DMSO), 5 days (fraction); higher = more cells survive
[1] = tested on: NCI-H520
Outline: (§1)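 Relative viability divides the nuclei count in treated wells by that in vehicle wells. Lung cancer cell lines were seeded in 1536-well plates, dosed by pin tool the next day, and fixed and stained after 5 days in one step with final 0.05% Triton X-100, 1% formaldehyde and 1 ug/ml Hoechst. Dosing was a single drug or a fixed anchor-drug dose plus five library-drug doses (not always all listed) in √10 steps, and values are medians of duplicate plates imaged at 4×.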

[2] = tested on: NCI-H1993
Outline: as §1

[3] = tested on: SK-LU-1
Outline: as §1

[4] = tested on: NCI-H2009
Outline: as §1

[5] = tested on: NCI-H460
Outline: as §1

[6] = tested on: EMC-BAC-2
Outline: as §1

[7] = tested on: NCI-H1793
Outline: as §1

[8] = tested on: PC-14
Outline: as §1

[9] = tested on: NCI-H1944
Outline: as §1

[10] = tested on: NCI-H1355
Outline: as §1

[11] = tested on: NCI-H1975
Outline: as §1

[12] = tested on: NCI-H2126
Outline: as §1

[13] = tested on: NCI-H441
Outline: as §1

[14] = tested on: NCI-H647
Outline: as §1

[15] = tested on: NCI-H2347
Outline: as §1

[16] = tested on: NCI-H1666
Outline: as §1

[17] = tested on: LCLC-97TM1
Outline: as §1

[18] = tested on: NCI-H1755
Outline: as §1

[19] = tested on: ABC-1
Outline: as §1

[20] = tested on: SW 1573
Outline: as §1

[21] = tested on: NCI-H727
Outline: as §1

[22] = tested on: PC-3 [JPC-3]
Outline: as §1

[23] = tested on: NCI-H2170
Outline: as §1

Compound: O=c1[nH]c2ccccc2n1C1CCN(CCCC(c2ccc(F)cc2)c2ccc(F)cc2)CC1 [Pimozide] + COc1cc2c(Oc3ccc(NC(=O)C4(C(=O)Nc5ccc(F)cc5)CC4)cc3F)ccnc2cc1OCCCN1CCOCC1 [Foretinib] (partner 0.25 µM)
- relative viability ([1]; first compound 0.08 µM): 0.886
- relative viability ([1]; first compound 0.253 µM): 0.779
- relative viability ([1]; first compound 0.8 µM): 0.618
- relative viability ([1]; first compound 2.53 µM): 0.916
- relative viability ([1]; first compound 8 µM): 0.898
- relative viability ([2]; first compound 0.08 µM): 0.705
- relative viability ([2]; first compound 0.253 µM): 0.777
- relative viability ([2]; first compound 0.8 µM): 0.727
- relative viability ([2]; first compound 2.53 µM): 0.788
- relative viability ([2]; first compound 8 µM): 0.851
- relative viability ([3]; first compound 0.08 µM): 0.888
- relative viability ([3]; first compound 0.253 µM): 0.793
- relative viability ([3]; first compound 0.8 µM): 0.783
- relative viability ([3]; first compound 2.53 µM): 0.777
- relative viability ([3]; first compound 8 µM): 0.637
- relative viability ([4]; first compound 0.08 µM): 1.24
- relative viability ([4]; first compound 0.253 µM): 1.12
- relative viability ([4]; first compound 0.8 µM): 1.19
- relative viability ([4]; first compound 2.53 µM): 1.09
- relative viability ([4]; first compound 8 µM): 1.13
- relative viability ([5]; first compound 0.08 µM): 0.973
- relative viability ([5]; first compound 0.253 µM): 1.03
- relative viability ([5]; first compound 0.8 µM): 0.872
- relative viability ([5]; first compound 2.53 µM): 0.864
- relative viability ([5]; first compound 8 µM): 0.867
- relative viability ([6]; first compound 0.08 µM): 0.989
- relative viability ([6]; first compound 0.253 µM): 1.03
- relative viability ([6]; first compound 0.8 µM): 0.986
- relative viability ([6]; first compound 2.53 µM): 0.841
- relative viability ([6]; first compound 8 µM): 0.686
- relative viability ([7]; first compound 0.253 µM): 0.691
- relative viability ([7]; first compound 0.8 µM): 0.462
- relative viability ([7]; first compound 2.53 µM): 0.582
- relative viability ([7]; first compound 8 µM): 0.521
- relative viability ([8]; first compound 0.253 µM): 1
- relative viability ([8]; first compound 0.8 µM): 0.943
- relative viability ([8]; first compound 2.53 µM): 0.965
- relative viability ([8]; first compound 8 µM): 1.02
- relative viability ([9]; first compound 0.08 µM): 0.901
- relative viability ([9]; first compound 0.253 µM): 0.891
- relative viability ([9]; first compound 0.8 µM): 0.807
- relative viability ([9]; first compound 2.53 µM): 0.735
- relative viability ([9]; first compound 8 µM): 0.817
- relative viability ([10]; first compound 0.08 µM): 0.808
- relative viability ([10]; first compound 0.253 µM): 0.923
- relative viability ([10]; first compound 0.8 µM): 0.888
- relative viability ([10]; first compound 2.53 µM): 0.886
- relative viability ([10]; first compound 8 µM): 1
- relative viability ([11]; first compound 0.08 µM): 0.948
- relative viability ([11]; first compound 0.253 µM): 0.84
- relative viability ([11]; first compound 0.8 µM): 1.02
- relative viability ([11]; first compound 2.53 µM): 0.847
- relative viability ([11]; first compound 8 µM): 0.952
- relative viability ([12]; first compound 0.08 µM): 1.39
- relative viability ([12]; first compound 0.253 µM): 1.14
- relative viability ([12]; first compound 0.8 µM): 1.06
- relative viability ([12]; first compound 2.53 µM): 1.23
- relative viability ([12]; first compound 8 µM): 1.13
- relative viability ([13]; first compound 0.08 µM): 1.09
- relative viability ([13]; first compound 0.253 µM): 1.16
- relative viability ([13]; first compound 0.8 µM): 1.1
- relative viability ([13]; first compound 2.53 µM): 0.948
- relative viability ([13]; first compound 8 µM): 0.922
- relative viability ([14]; first compound 0.08 µM): 1.28
- relative viability ([14]; first compound 0.253 µM): 1.17
- relative viability ([14]; first compound 0.8 µM): 1.14
- relative viability ([14]; first compound 2.53 µM): 1.22
- relative viability ([14]; first compound 8 µM): 1.17
- relative viability ([15]; first compound 0.08 µM): 0.883
- relative viability ([15]; first compound 0.253 µM): 0.622
- relative viability ([15]; first compound 0.8 µM): 0.964
- relative viability ([15]; first compound 2.53 µM): 1.35
- relative viability ([15]; first compound 8 µM): 1.07
- relative viability ([16]; first compound 0.08 µM): 0.952
- relative viability ([16]; first compound 0.253 µM): 0.939
- relative viability ([16]; first compound 0.8 µM): 0.941
- relative viability ([16]; first compound 2.53 µM): 0.867
- relative viability ([16]; first compound 8 µM): 0.857
- relative viability ([17]; first compound 0.08 µM): 0.926
- relative viability ([17]; first compound 0.253 µM): 1.03
- relative viability ([17]; first compound 0.8 µM): 0.823
- relative viability ([17]; first compound 2.53 µM): 0.852
- relative viability ([17]; first compound 8 µM): 0.789
- relative viability ([18]; first compound 0.08 µM): 0.929
- relative viability ([18]; first compound 0.253 µM): 0.928
- relative viability ([18]; first compound 0.8 µM): 0.874
- relative viability ([18]; first compound 2.53 µM): 0.948
- relative viability ([18]; first compound 8 µM): 0.812
- relative viability ([19]; first compound 0.08 µM): 1.11
- relative viability ([19]; first compound 0.253 µM): 0.995
- relative viability ([19]; first compound 0.8 µM): 0.723
- relative viability ([19]; first compound 2.53 µM): 0.891
- relative viability ([19]; first compound 8 µM): 0.767
- relative viability ([20]; first compound 0.08 µM): 0.803
- relative viability ([20]; first compound 0.253 µM): 0.946
- relative viability ([20]; first compound 0.8 µM): 0.86
- relative viability ([20]; first compound 2.53 µM): 0.892
- relative viability ([20]; first compound 8 µM): 1.04
- relative viability ([21]; first compound 0.08 µM): 0.679
- relative viability ([21]; first compound 0.253 µM): 0.87
- relative viability ([21]; first compound 0.8 µM): 0.798
- relative viability ([21]; first compound 2.53 µM): 0.722
- relative viability ([21]; first compound 8 µM): 0.782
- relative viability ([22]; first compound 0.08 µM): 0.839
- relative viability ([22]; first compound 0.253 µM): 1.03
- relative viability ([22]; first compound 0.8 µM): 0.952
- relative viability ([22]; first compound 2.53 µM): 0.931
- relative viability ([22]; first compound 8 µM): 0.86
- relative viability ([23]; first compound 0.08 µM): 1.04
- relative viability ([23]; first compound 0.253 µM): 1.03
- relative viability ([23]; first compound 0.8 µM): 0.985
- relative viability ([23]; first compound 2.53 µM): 0.99
- relative viability ([23]; first compound 8 µM): 1.06
